Data set [1] deals with purified porcine tubulin (Sus scrofa, UniProt P02550+P02554). The data set is described as follows: Inhibition of 3H-labeled colchicine binding to purified tubulin, scintillation proximity assay. Conditions: graded doses. How it is done:
A series of compounds according to the invention and C14 vincristine and colchicine were tested for their capacity to inhibit ^3H-labeled colchicine binding to purified tubulin. Briefly, a limiting amount of tritium-labeled colchicine and graded doses of test compounds were added to purified porcine tubulin. After an incubation period, radioactivity associated with tubulin was determined using a scintillation proximity assay. […] By showing that these compounds interact with the colchicine binding site, it differentiates them from the tubulin inhibitors of the Vinca alkaloid- and taxane-types. The results also indicate that the compounds of the invention can be used in combination with the Vinca alkaloid- and taxane-types of tubulin inhibitors since they bind to a different aspect of tubulin, and likely affect tubulin polymerization via a different mechanism. The results also indicate that the compounds of the invention can be used even in patients who are refractory or non-responsive to other tubulin inhibitors, such as the tubulin inhibitors of the Vinca alkaloid- and taxane-types.

For data set [2], the system named is Jurkat cells. The data set is described as follows: Jurkat cell viability, resazurin (Alamar Blue) assay. To be noted: Homo sapiens. The format is cell-based. How it is done: The compounds were tested for pharmacological activity. In each of the tests, each compound was tested at […] in duplicates. […] The percentage of response relative to the DMSO control was then calculated for the mean value of the duplicates of each test. The values of the three tests were finally averaged and the standard deviations calculated.
Jurkat cells (10'000 cells/well) were incubated in the presence of various concentrations of compounds, doxorubicin or staurosporine. Twenty-two hours later, cells were incubated with resazurin (20 μg/ml) for 4 hours and fluorescence was measured at 590 nm.
For orientation: Resazurin is reduced to fluorescent resorufin, in cell work by metabolically active cells.

In data set [3] the test system is caspase 3 and 7. As to the kind of experiment: Apoptosis induction in Jurkat cells, caspase 3 and 7 assay. To be noted: for IC50: Homo sapiens, Jurkat cells, caspase 3/7 assay. The format is cell-based. The procedure: Compounds were assessed for their ability to induce apoptosis of Jurkat cells at 2 and 10 micromolar after 4 and 22 hours.
In order to firmly establish that the compounds of the invention cause cytotoxicity through apoptosis, IC50 of five compounds of the invention, doxorubicin and staurosporin were determined in the caspase assays; results are presented in Table 2. Importantly, the IC50 determined in the Alamar Blue and in the caspase assays were largely overlapping.

Data set [4] is described as follows: Solubilization in intravenous formulation. To be noted: 5% Cremophor and 5% ethanol in water. The format is physicochemical. The source says:
This formulation was then used for the subsequent animal studies (maximal tolerated dose, pharmacokinetics and efficacy in cancer models).

A short description of data set [5]: Pharmacokinetics after intravenous injection, plasma concentration. Format: in vivo. Conditions: mice, intravenous, after four hours. How it is done:
The pharmacokinetics of E3 and E35 were investigated. Mice intravenously injected with 15 mg/kg of E3 were bled after 0, 1, 5, 10, 20, 30, 60, 120 and 480 minutes. […] For E35, mice intravenously injected with 30 mg/kg of […] were bled after 0, 1, 5, 10, 20, 30, 60, 120 and 480 minutes. […] Concentration then decreased steadily over the 8 hours of the study. During the first four hours after injection, circulating concentrations of E3 and E35 were found largely similar.

The mark [6] stands for this setting: Jurkat cells, 22 h then resazurin 4 h, three experiments in duplicates, read-out: IC50.
Setting [7] is: Jurkat, control compounds of the tests, read-out: IC50 of control agents included in each test.

Like-named read-outs stand apart in the source and are kept apart here.

purified porcine tubulin, sequence (P02554 whole entry): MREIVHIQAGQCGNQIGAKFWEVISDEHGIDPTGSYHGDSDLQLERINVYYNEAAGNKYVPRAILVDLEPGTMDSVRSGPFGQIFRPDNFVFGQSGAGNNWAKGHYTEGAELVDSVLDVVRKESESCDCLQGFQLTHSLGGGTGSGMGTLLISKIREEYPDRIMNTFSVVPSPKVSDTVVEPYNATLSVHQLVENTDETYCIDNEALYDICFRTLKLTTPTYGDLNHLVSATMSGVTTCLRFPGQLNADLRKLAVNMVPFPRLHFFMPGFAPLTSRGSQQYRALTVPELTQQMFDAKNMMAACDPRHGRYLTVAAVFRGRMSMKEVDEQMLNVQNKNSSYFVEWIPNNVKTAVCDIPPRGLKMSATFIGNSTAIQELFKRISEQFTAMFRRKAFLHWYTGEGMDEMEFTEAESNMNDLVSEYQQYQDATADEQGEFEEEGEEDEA
purified porcine tubulin, sequence (P02550 whole entry): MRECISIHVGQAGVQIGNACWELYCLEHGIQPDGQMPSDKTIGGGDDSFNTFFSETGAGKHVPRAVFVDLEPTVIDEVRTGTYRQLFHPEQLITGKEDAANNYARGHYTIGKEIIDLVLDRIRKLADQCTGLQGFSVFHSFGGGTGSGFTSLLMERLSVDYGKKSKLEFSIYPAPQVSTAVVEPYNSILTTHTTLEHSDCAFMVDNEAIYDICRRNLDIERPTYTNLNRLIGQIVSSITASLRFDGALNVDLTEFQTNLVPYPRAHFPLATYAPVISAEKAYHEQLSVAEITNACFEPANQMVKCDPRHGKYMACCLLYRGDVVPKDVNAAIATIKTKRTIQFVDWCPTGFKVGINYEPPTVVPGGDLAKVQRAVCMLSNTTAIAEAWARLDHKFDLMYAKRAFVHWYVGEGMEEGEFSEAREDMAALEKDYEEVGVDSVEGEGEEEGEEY

With `COc1cc(-c2ccc3[nH]c4c(C)nccc4c3c2)cc(OC)c1OC` [Example C14], in data set [1], the “inhibition of 3H-labeled colchicine binding to tubulin” value (“inhibition” below) is recorded as “did not inhibit colchicine binding”. Besides, the IC50 – broadly, the midpoint of a concentration-inhibition curve – in data set [2] (setting [6]) was over 10000 nM.

As for `Cc1nccc2c1[nH]c1ccc(-c3ccccc3)cc12` [Example E1, 6-phenyl-1-methyl-9H-pyrido[3,4-b]indole], the “caspase 3 and 7 activity compared to solvent control (%)” value (from here on “caspase 3 and 7 activity … (%)”) in data set [3] (2 μM after 4 h) was −8.5%; in data set [3] (2 μM after 22 h), 618.5%; in data set [3] (10 μM after 4 h), −10.0%; in data set [3] (10 μM after 22 h), 535.9%. Besides, in data set [2] (setting [6]), the IC50 came out at 413 nM.

As to `Cc1nccc2c1[nH]c1ccc(-c3cccc(Cl)c3)cc12` [Example E2, 6-(3-chlorophenyl)-1-methyl-9H-pyrido[3,4-b]indole], the IC50 in data set [3] was 0.108 µM; in data set [2] (setting [6]), 104 nM.

As for `Cc1nccc2c1[nH]c1ccc(-c3cccc(C(F)(F)F)c3)cc12` [Example E6, 6-(3-(trifluoromethyl)phenyl)-1-methyl-9H-pyrido[3,4-b]indole], the “caspase 3 and 7 activity … (%)” value in data set [3] (2 μM after 4 h) was determined as 9.2%; in data set [3] (2 μM after 22 h) it was 482.6%; in data set [3] (10 μM after 4 h) it was 11.2%; in data set [3] (10 μM after 22 h) it was 585.1%. In addition, in data set [2] (setting [6]), the concentration for half-maximal inhibition (IC50) worked out at 1260 nM.

For the compound `CCOc1ccc(F)c(-c2ccc3[nH]c4c(C)nccc4c3c2)c1` [Example E7, 6-(5-ethoxy-2-fluorophenyl)-1-methyl-9H-pyrido[3,4-b]indole], the “caspase 3 and 7 activity … (%)” value is reported as −7.6% in data set [3] (2 μM after 4 h), 616.1% in data set [3] (2 μM after 22 h), −10.2% in data set [3] (10 μM after 4 h) and 548.1% in data set [3] (10 μM after 22 h). For the same compound, the concentration for half-maximal inhibition (IC50) in data set [2] (setting [6]) is 775 nM.

Regarding `COc1cccc(-c2ccc3[nH]c4c(C)nccc4c3c2)c1` [Example E9, 6-(3-methoxyphenyl)-1-methyl-9H-pyrido[3,4-b]indole], the IC50 in data set [3] amounted to 0.215 µM; in data set [2] (setting [6]), 137 nM.

Turning to `Cc1nccc2c1[nH]c1ccc(-c3cccc(C#N)c3)cc12` [Example E21, 6-(3-cyanophenyl)-1-methyl-9H-pyrido[3,4-b]indole], the results for the half-maximal inhibitory concentration (IC50) in data set [3] and in data set [2] (setting [6]) were 0.061 µM and 47 nM, respectively.

Take `Cc1nccc2c1[nH]c1ccc(-c3cccnc3)cc12` [Example E25, 6-(pyridine-3-yl)-1-methyl-9H-pyrido[3,4-b]indole]: the “caspase 3 and 7 activity … (%)” value in data set [3] (2 μM after 4 h) is −0.6%; in data set [3] (2 μM after 22 h), 624.4%; in data set [3] (10 μM after 4 h) it was 18.7%; in data set [3] (10 μM after 22 h), 405.7%. Also, the half-inhibitory concentration (IC50) in data set [2] (setting [6]) is 602 nM.

Regarding `Cc1nccc2c1[nH]c1ccc(-c3ccc4c(c3)CCO4)cc12` [Example E29, 6-(2,3-dihydrobenzofuran-5-yl)-1-methyl-9H-pyrido[3,4-b]indole], the half-maximal inhibitory concentration (IC50) came to 0.128 µM in data set [3] and 64 nM in data set [2] (setting [6]).

As to `CCc1nccc2c1[nH]c1ccc(-c3cccc(C(N)=O)c3)cc12` [Example E35, 6-(3-aminocarbonylphenyl)-1-ethyl-9H-pyrido[3,4-b]indole], in data set [1], the “inhibition” value is on record as “inhibited binding of colchicine”. Also, in data set [4], the “suitability of the formulation” value is “adequate”. The compound further displayed an IC50 in data set [2] (Jurkat) of 4 nM. The “circulating concentration compared with E3” value in data set [5] is “substantially lower circulating concentration than E3”.

`CCc1nccc2c1[nH]c1ccc(-c3cccc(NS(C)(=O)=O)c3)cc12` [Example E44, N-(3-(1-ethyl-9H-pyrido[3,4-b]indol-6-yl)phenyl)methanesulfonamide]: the “inhibition” value in data set [1] is listed as “inhibited binding of colchicine”. Further, the “suitability of the formulation” value in data set [4] is on record as “adequate”. Besides, the IC50 in data set [2] (Jurkat) amounted to 90 nM.

Consider `Cc1nccc2c1[nH]c1ccc(-c3cccc(C(=O)NCCO)c3)cc12` [Example E48, N-(2-hydroxyethyl)-3-(1-methyl-9H-pyrido[3,4-b]indol-6-yl)benzamide], for which, in data set [2] (setting [6]), the concentration for half-maximal inhibition (IC50) was 627 nM.

Turning to `Cc1nccc2c1[nH]c1ccc(-c3cccc(CNC(=O)N4CCN(C)CC4)c3)cc12` [Example E49], the half-inhibitory concentration (IC50) in data set [2] (setting [6]) turned out to be 225 nM.

As to `CCc1nccc2c3cc(-c4cccc(C(N)=O)c4)ccc3n(C)c12` [Example E50, 3-(1-ethyl-9-methyl-9H-pyrido[3,4-b]indol-6-yl)benzamide], the half-maximal inhibitory concentration (IC50) in data set [2] (setting [6]) is 16 nM.

Regarding `Cc1nccc2c3cc(-c4ccc5c(c4)CCO5)ccc3n(C)c12` [Example E51, 6-(2,3-dihydrobenzofuran-5-yl)-1,9-dimethyl-9H-pyrido[3,4-b]indole], the IC50 in data set [2] (setting [6]) was 9 nM.

Take `CCc1nccc2c1[nH]c1ccc(-c3cccc(NC(C)=O)c3)cc12` [Example E52, N-(3-(1-ethyl-9H-pyrido[3,4-b]indol-6-yl)phenyl)acetamide]: in data set [2] (setting [6]), the IC50 stood at 18 nM.

For `COc1cncc(-c2ccc3[nH]c4c(C)nccc4c3c2)c1` [Example E53, 6-(5-methoxypyridin-3-yl)-1-methyl-9H-pyrido[3,4-b]indole], the IC50 in data set [2] (setting [6]) was found to be 2610 nM.

Take `Cc1nccc2c1[nH]c1ccc(-c3ccc4c(c3)CCCO4)cc12` [Example E54, 6-(chroman-6-yl)-1-methyl-9H-pyrido[3,4-b]indole]: the IC50 in data set [2] (setting [6]) is 53 nM.

Consider `Cc1nccc2c1[nH]c1ccc(-c3cccc(-c4ccco4)c3)cc12` [Example E55, 6-(3-(furan-2-yl)phenyl)-1-methyl-9H-pyrido[3,4-b]indole], for which the half-inhibitory concentration (IC50) in data set [2] (setting [6]) stood at 2200 nM.

Consider `Cc1nccc2c1[nH]c1ccc(-c3cccc(CN4CCOCC4)c3)cc12` [Example E56], for which the IC50 in data set [2] (setting [6]) was 733 nM.

`Cc1nccc2c1[nH]c1ccc(-c3cccc(CN4CCN(C)CC4)c3)cc12` [Example E57, 6-(3-((4-methylpiperazin-1-yl)methyl)phenyl)-1-methyl 9H-pyrido[3,4-b]indole]: the IC50 in data set [2] (setting [6]) is 200 nM.

Regarding `Cc1cccc2c1[nH]c1ccc(-c3ccc4c(c3)CCO4)cc12` [Example E58, 6-(2,3-dihydrobenzofuran-5-yl)-1-methyl-9H-carbazole], the IC50 in data set [2] (setting [6]) came out at 3750 nM.

On to `Cc1nccc2c1[nH]c1ccc(-c3cccc(-n4cccn4)c3)cc12` [Example E59, 6-(3-(1H-pyrazol-1-yl)phenyl)-1-methyl-9H-pyrido[3,4-b]indole], for which the IC50 in data set [2] (setting [6]) came to 913 nM.

Consider `Cc1c2[nH]c3ccc(-c4cc(Cl)cc(Cl)c4)cc3c2cc[n+]1[O-]` [Example E60, 6-(3,5-dichlorophenyl)-1-methyl-9H-pyrido[3,4-b]indole 2-oxide], for which, in data set [2] (setting [6]), the 50% inhibitory concentration (IC50) came out at 25 nM.

As to `COc1cccc2c1C(=O)c1c(O)c3c(c(O)c1C2=O)C[C@@](O)(C(=O)CO)C[C@@H]3O[C@H]1C[C@H](N)[C@H](O)[C@H](C)O1` [doxorubicin, reference compound], the 50% inhibitory concentration (IC50) in data set [2] (setting [7]) is 85 nM.

On to `CN[C@@H]1C[C@H]2O[C@@](C)([C@@H]1OC)n1c3ccccc3c3c4c(c5c6ccccc6n2c5c31)C(=O)NC4` [staurosporine, reference compound], for which, in data set [2] (setting [7]), the half-maximal inhibitory concentration (IC50) was 31 nM.
